{"source": "patent US12606543B2", "about": "“Indole derivatives as serotonergic agents useful for the treatment of disorders related thereto” (priority 2023, dated 2026)", "key": {"[1]": {"assay": "Pharmacokinetic studies in rat (i.v.)", "assay_type": "in vivo", "settings": "male, Sprague-Dawley, plasma; for concentration at 0.25 h / concentration at 1 h / concentration at 4 h: intravenous, dose per Dose column (1.32-2.09 mg/kg); for half-life / AUC(0-t): iv, rat plasma, i.v., dose per Dose column; for half-life: estimated from 2 points only", "procedure": "Animals: Male Sprague-Dawley rats (˜225-350 g) from Charles River Labs were acclimatized for a minimum of 5 days prior to start of study procedures. Body weights were recorded on the day of dosing.\nAny abnormalities were documented including presence/absence of wet dog shakes/back muscle contractions (WDS/BMC).\nDosing: Formulations were administered intravenously (i.v.) via the tail vein using a 25 G needle connected to a 1 cc syringe.\nThe exemplary compounds of Formula (I) were freshly prepared at the appropriate concentrations in 5% Tween-80 in saline.\nBlood collection time (h): 0, […], 1 and 4\nVolume/time-point: ˜0.25 mL (saphenous vein)\nInstrumentation: AB Sciex QTRAP 4000 or 6500 MS/MS system equipped with an LC system with a binary pump, a solvent degasser, a thermostated column compartment, and a multiplate autosampler.\nAnalysis software: Phoenix® WinNonlin® 8.3 (Pharsight, Certara, Mountainview, CA).\nAnalysis methods: non-compartmental analysis, linear up/log down trapezoidal rule.\nPK parameters: t1/2 and AUC0-tlast was estimated.\nThe Compounds of Formula (I) were freshly prepared at the appropriate concentrations in 5% Tween-80 in saline.\nInstrumentation: AB Sciex QTRAP 4000 or 6500 MS/MS system equipped with an LC system with a binary pump, a solvent degasser, a thermostated column compartment and a multiplate autosampler.\nPK parameters: t1/2 and AUC0-tlast will be estimated."}, "[2]": {"assay": "Liver microsomes stability, human", "assay_type": "in vitro ADME", "settings": "human liver microsomes; for half-life at 2 μM / microsomal CLint at 2 μM: 2 μM compound, 0.5 mg/mL microsomes; for CLint scaled at 2 μM: read-out: Scaled-up CLint"}, "[3]": {"assay": "Plasma protein binding by equilibrium dialysis, dog", "assay_type": "in vitro ADME", "settings": "dog plasma, 6 hours; for recovery at 6 h, 1 µM / fraction unbound at 6 h, 1 μM: Beagle, equilibrium dialysis, 37° C.; for recovery at 6 h, 1 µM: dog; for fraction unbound at 6 h, 1 μM: read-out: % Bound (converted)", "procedure": "The final concentration of compound was 1 μM. The final concentration of DMSO was 0.5%. Ketoconazole was used as positive control in the assay.\nThe assay was performed in duplicate.\nAll calculations were carried out using Microsoft Excel. […] The percentages of bound compound were calculated as follows: […]\nKetoconazole was used as positive control in the assay."}, "[4]": {"settings": "first animal (R07/R04/R01/R10), read-out: Plasma concentration"}, "[5]": {"settings": "mean of 3 rats, read-out: Plasma concentration, Mean ± SD"}, "[6]": {"settings": "second animal (R08/R05/R02/R11), read-out: Plasma concentration"}, "[7]": {"settings": "third animal (R09/R06/R03/R12), read-out: Plasma concentration"}, "[8]": {"settings": "first animal (R07/R04/R01/R10), read-out: Apparent t1/2 (converted)"}, "[9]": {"settings": "mean of 3 rats, read-out: Apparent t1/2, Mean ± SD (converted)"}, "[10]": {"settings": "second animal (R08/R05/R02/R11), read-out: Apparent t1/2 (converted)"}, "[11]": {"settings": "third animal (R09/R06/R03/R12), read-out: Apparent t1/2 (converted)"}, "[12]": {"settings": "first animal (R07/R04/R01/R10), read-out: AUC0-tlast"}, "[13]": {"settings": "mean of 3 rats, read-out: AUC0-tlast, Mean ± SD"}, "[14]": {"settings": "second animal (R08/R05/R02/R11), read-out: AUC0-tlast"}, "[15]": {"settings": "third animal (R09/R06/R03/R12), read-out: AUC0-tlast"}}, "note": "Read-outs that look alike come from different tables or passages of the source.", "data": [{"compound": "COCCN1CCC[C@@H]1Cc1c[nH]c2ccc(OC)cc12", "note": "[(R) I-98, (R)-5-Methoxy-3-((1-(2-methoxyethyl)pyrrolidin-2-yl)methyl)-1H-indole]", "values": [{"measurement": "concentration at 0.25 h", "setting": "[1]; [4]", "result": 411, "unit": "ng/mL"}, {"measurement": "concentration at 0.25 h", "setting": "[1]; [5]", "result": "446 ± 34.1", "unit": "ng/mL"}, {"measurement": "concentration at 0.25 h", "setting": "[1]; [6]", "result": 479, "unit": "ng/mL"}, {"measurement": "concentration at 0.25 h", "setting": "[1]; [7]", "result": 449, "unit": "ng/mL"}, {"measurement": "concentration at 1 h", "setting": "[1]; [4]", "result": 128, "unit": "ng/mL"}, {"measurement": "concentration at 1 h", "setting": "[1]; [5]", "result": "113 ± 14.2", "unit": "ng/mL"}, {"measurement": "concentration at 1 h", "setting": "[1]; [6]", "result": 110, "unit": "ng/mL"}, {"measurement": "concentration at 1 h", "setting": "[1]; [7]", "result": 100, "unit": "ng/mL"}, {"measurement": "concentration at 4 h", "setting": "[1]; [4]", "result": 2.48, "unit": "ng/mL"}, {"measurement": "concentration at 4 h", "setting": "[1]; [5]", "result": "2.32 ± 0.139", "unit": "ng/mL"}, {"measurement": "concentration at 4 h", "setting": "[1]; [6]", "result": 2.25, "unit": "ng/mL"}, {"measurement": "concentration at 4 h", "setting": "[1]; [7]", "result": 2.23, "unit": "ng/mL"}, {"measurement": "half-life", "setting": "[1]; [8]", "result": 30.8, "unit": "min"}, {"measurement": "half-life", "setting": "[1]; [9]", "result": "30.4 ± 0.473", "unit": "min"}, {"measurement": "half-life", "setting": "[1]; [10]", "result": 29.9, "unit": "min"}, {"measurement": "half-life", "setting": "[1]; [11]", "result": 30.3, "unit": "min"}, {"measurement": "AUC(0-t)", "setting": "[1]; [12]", "result": 403, "unit": "ng·h/mL"}, {"measurement": "AUC(0-t)", "setting": "[1]; [13]", "result": "409 ± 15.1", "unit": "ng·h/mL"}, {"measurement": "AUC(0-t)", "setting": "[1]; [14]", "result": 426, "unit": "ng·h/mL"}, {"measurement": "AUC(0-t)", "setting": "[1]; [15]", "result": 397, "unit": "ng·h/mL"}, {"measurement": "Predicted hepatic CL", "setting": "[2]", "result": 11.72, "unit": "mL/min/kg"}, {"measurement": "half-life at 2 μM", "setting": "[2]", "result": 64.3, "unit": "min"}, {"measurement": "microsomal CLint at 2 μM", "setting": "[2]", "result": 21.6, "unit": "µL/min/mg"}, {"measurement": "Remaining Percentage", "setting": "[2]; With Cofactors, 30 min", "result": 100.00, "unit": "%"}, {"measurement": "Remaining Percentage", "setting": "[2]; With Cofactors, 60 min", "result": 67.04, "unit": "%"}, {"measurement": "Remaining Percentage", "setting": "[2]; Without Cofactors, 30 min", "result": 100.00, "unit": "%"}, {"measurement": "Remaining Percentage", "setting": "[2]; Without Cofactors, 60 min", "result": 98.21, "unit": "%"}, {"measurement": "CLint scaled at 2 μM", "setting": "[2]", "result": 27, "unit": "mL/min/kg"}, {"measurement": "recovery at 6 h, 1 µM", "setting": "[3]", "result": 104, "unit": "%"}, {"measurement": "fraction unbound at 6 h, 1 μM", "setting": "[3]", "result": 0.157}, {"measurement": "% Remaining @ 6 hours", "setting": "[3]", "result": 110.92, "unit": "%"}]}, {"compound": "[2H]C([2H])(c1c[nH]c2ccc(OCCCCN3C(=O)c4ccccc4C3=O)cc12)[C@H]1CCCN1C([2H])([2H])[2H]", "note": "[(R) I-244, (R)-2-(4-((3-((1-(Methyl-d3)pyrrolidin-2-yl)methyl-d2)-1H-indol-5-yl)oxy)butyl)isoindoline-1,3-dione]", "values": [{"measurement": "concentration at 0.25 h", "setting": "[1]; [4]", "result": 252, "unit": "ng/mL"}, {"measurement": "concentration at 0.25 h", "setting": "[1]; [5]", "result": "292 ± 59.4", "unit": "ng/mL"}, {"measurement": "concentration at 0.25 h", "setting": "[1]; [6]", "result": 360, "unit": "ng/mL"}, {"measurement": "concentration at 0.25 h", "setting": "[1]; [7]", "result": 263, "unit": "ng/mL"}, {"measurement": "concentration at 1 h", "setting": "[1]; [4]", "result": 132, "unit": "ng/mL"}, {"measurement": "concentration at 1 h", "setting": "[1]; [5]", "result": "130 ± 21.6", "unit": "ng/mL"}, {"measurement": "concentration at 1 h", "setting": "[1]; [6]", "result": 150, "unit": "ng/mL"}, {"measurement": "concentration at 1 h", "setting": "[1]; [7]", "result": 107, "unit": "ng/mL"}, {"measurement": "concentration at 4 h", "setting": "[1]; [4]", "result": 20.7, "unit": "ng/mL"}, {"measurement": "concentration at 4 h", "setting": "[1]; [5]", "result": "22 ± 1.63", "unit": "ng/mL"}, {"measurement": "concentration at 4 h", "setting": "[1]; [6]", "result": 23.8, "unit": "ng/mL"}, {"measurement": "concentration at 4 h", "setting": "[1]; [7]", "result": 21.4, "unit": "ng/mL"}, {"measurement": "half-life", "setting": "[1]; [8]", "result": 63.6, "unit": "min"}, {"measurement": "half-life", "setting": "[1]; [9]", "result": "63 ± 2.96", "unit": "min"}, {"measurement": "half-life", "setting": "[1]; [10]", "result": 60, "unit": "min"}, {"measurement": "half-life", "setting": "[1]; [11]", "result": 66, "unit": "min"}, {"measurement": "AUC(0-t)", "setting": "[1]; [12]", "result": 390, "unit": "ng·h/mL"}, {"measurement": "AUC(0-t)", "setting": "[1]; [13]", "result": "415 ± 65.7", "unit": "ng·h/mL"}, {"measurement": "AUC(0-t)", "setting": "[1]; [14]", "result": 490, "unit": "ng·h/mL"}, {"measurement": "AUC(0-t)", "setting": "[1]; [15]", "result": 366, "unit": "ng·h/mL"}, {"measurement": "Predicted hepatic CL", "setting": "[2]", "result": 19.32, "unit": "mL/min/kg"}, {"measurement": "half-life at 2 μM", "setting": "[2]", "result": 5.98, "unit": "min"}, {"measurement": "microsomal CLint at 2 μM", "setting": "[2]", "result": 232, "unit": "µL/min/mg"}, {"measurement": "Remaining Percentage", "setting": "[2]; With Cofactors, 0 min", "result": 100.00, "unit": "%"}, {"measurement": "Remaining Percentage", "setting": "[2]; With Cofactors, 30 min", "result": 3.10, "unit": "%"}, {"measurement": "Remaining Percentage", "setting": "[2]; With Cofactors, 60 min", "result": 0.00, "unit": "%"}, {"measurement": "Remaining Percentage", "setting": "[2]; Without Cofactors, 0 min", "result": 100.00, "unit": "%"}, {"measurement": "Remaining Percentage", "setting": "[2]; Without Cofactors, 30 min", "result": 94.44, "unit": "%"}, {"measurement": "Remaining Percentage", "setting": "[2]; Without Cofactors, 60 min", "result": 88.07, "unit": "%"}, {"measurement": "CLint scaled at 2 μM", "setting": "[2]", "result": 290, "unit": "mL/min/kg"}, {"measurement": "recovery at 6 h, 1 µM", "setting": "[3]", "result": 94.6, "unit": "%"}, {"measurement": "fraction unbound at 6 h, 1 μM", "setting": "[3]", "result": 0.0281}, {"measurement": "% Remaining @ 6 hours", "setting": "[3]", "result": 94.07, "unit": "%"}]}]}
